{"source": "paper PMC6689897", "about": "“Drugging an undruggable pocket on KRAS” (Proceedings of the National Academy of Sciences of the …, 2019)", "assay_in_all_cases": "ITC", "format_in_all_cases": "binding", "key": {"GDP-KRASG12D": {"target": "GDP-KRASG12D (Homo sapiens, UniProt P01116, G12D)", "sequence (P01116 1-169 isoform P01116-2 G12D)": "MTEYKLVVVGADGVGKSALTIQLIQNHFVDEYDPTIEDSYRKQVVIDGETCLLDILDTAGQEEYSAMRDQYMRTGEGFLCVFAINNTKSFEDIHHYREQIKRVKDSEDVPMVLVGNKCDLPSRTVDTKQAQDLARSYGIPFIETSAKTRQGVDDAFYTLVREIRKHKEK", "settings": "25°C", "protocol": "(§1) 80 difference spectrum. Mixtures of four fragments (each at 250 µM) were incubated in 25\n(§2) 82 a mixture of GCP-KRASG12D and GDP-KRASG12V (each 4 µM). Binders were identified\n(§3) 83 by comparing pre-recorded reference spectra with the STD difference spectrum.\n(§4) 84 Deconvolution and confirmation of primary FBS hits obtained from STD-NMR and\n(§5) 85 MST was performed using 2D 1H/15N TROSY NMR experiments(2) collected on a\n(§6) 86 Bruker Avance III 600 MHz spectrometer equipped with a 5 mm z-gradient TCI cryo-\n(§7) 87 probe. Samples were prepared directly before data acquisition using a Tecan Freedom\n(§8) 88 Evo pipetting system and delivered by a Bruker Sample Rail to the magnet. Each sample\n(§9) 89 contained either 50 µM 15N labeled GDP-KRASG12D or GCP-KRASG12D in 25 mM Tris-\n(§10) 90 d11, 100 mM NaCl, 2 mM MgCl2, 0.5 mM TCEP pH 7.4 and 8% (v/v) D2O. Proteins\n(§11) 91 were incubated with 500 µM fragment in a 2.5 mm NMR tube at 298K and 1%\n(§12) 92 d6DMSO. Spectra were recorded with 32 transients and 64 data points in the indirect\n(§13) 93 dimension. Processing and analysis were accomplished with Topspin 3.0 (Bruker\n(§14) 94 BioSpin). Binders were identified by manual comparison of spectra in the presence of a\n(§15) 95 fragment and the respective reference spectrum. All confirmed binders to 15N labeled\n(§16) 96 GDP-KRASG12D show also chemical shift perturbations in the presence of 15N labeled\n(§17) 97 GDP-KRASG12V and are therefore non-selective.\n(§18) 98 Measurement of dissociation constants KD for the compounds synthesized. NMR\n(§19) 99 was initially the only method that could provide K Ds for the weakly binding molecules to\n(§20) 100 support compound optimization. 1H/15N SoFast HMQC experiments(3) were recorded in\n(§21) 101 3mm NMR tubes (170µL filling) at a protein concentration of 70-100µM. Spectra were\n(§22) 102 recorded on a Avance III 700MHz spectrometer equipped with a cryogenically cooled\n(§23) 103 5mm TCI probe and 48 scans, 128 f1 increments and 2k data points in f2. Total\n(§24) 104 acquisition time was 22 minutes. 4 – 6 titration points were performed w ith individual\n(§25) 105 samples for each titration point made from 50mM DMSO -d6 stock solutions. Total\n(§26) 106 DMSO-d6 concentration was kept constant by backfilling every sample to a total of 4%\n(§27) 107 DMSO. KDs were calculated from the differences in chemical shift induced by t he small\n(§28) 108 molecules upon interacting with the protein. Average chemical shifts from the 1H and 15N\n(§29) 109 dimension were calculated according to the following equation:\n(§30) 110 ∆δobs = √[δH2 + (α ∙δN)2] with α set to 0.14\n(§31) 111 The Δδobs values at the respective ligand concentrations and the total concentration\n(§32) 112 of protein allow a fit to the KD value of the ligand as long as it is binding under fast\n(§33) 113 exchange conditions as was the case for most of the compounds tested.(4) Usually Δδobs\n(§34) 115 following equation was used to determine the individual KDs:\n(§35) 116 ∆δobs = ∆δmax [([P]t + [L]t + KD) − [([P]t + [L]t + KD)2 − 4([P]t[L]t)]1/2]/2[P]t\n(§36) 119 Calorimetric experiments were performed on a Microcal PEAQ-ITC calorimeter\n(§37) 120 (MicroCalTM, LLC Northampton, MA). Protein solutions were measured in 20 mM\n(§38) 121 HEPES, 150 mM NaCl, 3% DMSO, pH 7.5. All measurements were carried out at 25°C.\n(§39) 122 Titrations were performed in inverse mode. The cell was loaded with compound solutions\n(§40) 123 in the range of 10 to 100 µM. All injections were performed using an initial injection of\n(§41) 124 0.5 μL followed by 19 injections of 2 μL of protein in the range of 130-500 µM. The data\n(§42) 125 were analyzed with the MicroCal PEAQ-ITC analysis software package. The first data\n(§43) 126 point was excluded from the analysis. Thermodynamic parameters were calculated (ΔG =\n(§44) 127 ΔH - TΔS = -RTlnKB, where ΔG, ΔH and ΔS are the changes in free energy, enthalpy and\n(§45) 128 entropy of binding, respectively).\n(§46) 130 Protein purification, nucleotide exchange and crystallization\n(§47) 131 The KRAS construct, based on uniprot identifier P01116 -2 (KRAS4-B) amino acids\n(§48) 134 G12V) were expressed with an N-terminal His6-tag followed by a TEV (tobacco etch"}, "GCP-NRASwt": {"target": "GCP-NRASwt (Homo sapiens, UniProt P01111, C118S)", "sequence (P01111 1-172 C118S)": "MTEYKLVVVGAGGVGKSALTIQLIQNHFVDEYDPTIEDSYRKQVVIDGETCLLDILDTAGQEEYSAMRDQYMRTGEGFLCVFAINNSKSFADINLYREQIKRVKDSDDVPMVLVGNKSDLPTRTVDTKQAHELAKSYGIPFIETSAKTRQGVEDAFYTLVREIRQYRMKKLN", "settings": "25°C", "protocol": "as §1, §2, §3, §4, §5, §6, §7, §8, §9, §10, §11, §12, §13, §14, §15, §16, §17, §18, §19, §20, §21, §22, §23, §24, §25, §26, §27, §28, §29, §30, §31, §32, §33, §34, §35, §36, §37, §38, §39, §40, §41, §42, §43, §44, §45, §46, §47, §48"}, "GCP-HRASwt": {"target": "GCP-HRASwt (Homo sapiens, UniProt P01112)", "sequence (P01112 1-166)": "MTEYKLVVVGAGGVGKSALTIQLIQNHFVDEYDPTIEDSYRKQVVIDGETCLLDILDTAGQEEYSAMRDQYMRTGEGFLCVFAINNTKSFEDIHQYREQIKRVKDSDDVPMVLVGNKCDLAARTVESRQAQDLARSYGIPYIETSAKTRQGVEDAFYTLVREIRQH", "settings": "25°C", "protocol": "as §1, §2, §3, §4, §5, §6, §7, §8, §9, §10, §11, §12, §13, §14, §15, §16, §17, §18, §19, §20, §21, §22, §23, §24, §25, §26, §27, §28, §29, §30, §31, §32, §33, §34, §35, §36, §37, §38, §39, §40, §41, §42, §43, §44, §45, §46, §47, §48"}, "GCP-KRASwt": {"target": "GCP-KRASwt (Homo sapiens, UniProt P01116)", "sequence (P01116 1-169 isoform P01116-2)": "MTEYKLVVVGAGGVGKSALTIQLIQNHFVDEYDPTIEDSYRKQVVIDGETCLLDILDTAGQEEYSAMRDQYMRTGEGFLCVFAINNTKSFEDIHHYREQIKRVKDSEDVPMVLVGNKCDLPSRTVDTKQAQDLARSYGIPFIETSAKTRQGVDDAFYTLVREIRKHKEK", "settings": "for Kd: 25°C", "protocol": "as §1, §2, §3, §4, §5, §6, §7, §8, §9, §10, §11, §12, §13, §14, §15, §16, §17, §18, §19, §20, §21, §22, §23, §24, §25, §26, §27, §28, §29, §30, §31, §32, §33, §34, §35, §36, §37, §38, §39, §40, §41, §42, §43, §44, §45, §46, §47, §48"}, "GDP-KRASwt": {"target": "GDP-KRASwt (Homo sapiens, UniProt P01116)", "sequence (P01116 1-169 isoform P01116-2)": "as above", "settings": "25°C", "protocol": "as §1, §2, §3, §4, §5, §6, §7, §8, §9, §10, §11, §12, §13, §14, §15, §16, §17, §18, §19, §20, §21, §22, §23, §24, §25, §26, §27, §28, §29, §30, §31, §32, §33, §34, §35, §36, §37, §38, §39, §40, §41, §42, §43, §44, §45, §46, §47, §48"}, "GDP-NRASwt": {"target": "GDP-NRASwt (Homo sapiens, UniProt P01111, C118S)", "sequence (P01111 1-172 C118S)": "as the sequence (P01111 1-172 C118S) above", "settings": "for Kd: 25°C", "protocol": "as §1, §2, §3, §4, §5, §6, §7, §8, §9, §10, §11, §12, §13, §14, §15, §16, §17, §18, §19, §20, §21, §22, §23, §24, §25, §26, §27, §28, §29, §30, §31, §32, §33, §34, §35, §36, §37, §38, §39, §40, §41, §42, §43, §44, §45, §46, §47, §48"}, "GCP-KRASG12D": {"target": "GCP-KRASG12D (Homo sapiens, UniProt P01116, G12D)", "sequence (P01116 1-169 isoform P01116-2 G12D)": "as the sequence (P01116 1-169 isoform P01116-2 G12D) above", "protocol": "as §1, §2, §3, §4, §5, §6, §7, §8, §9, §10, §11, §12, §13, §14, §15, §16, §17, §18, §19, §20, §21, §22, §23, §24, §25, §26, §27, §28, §29, §30, §31, §32, §33, §34, §35, §36, §37, §38, §39, §40, §41, §42, §43, §44, §45, §46, §47, §48"}, "GDP-HRASwt": {"target": "GDP-HRASwt (Homo sapiens, UniProt P01112)", "sequence (P01112 1-166)": "as the sequence (P01112 1-166) above", "settings": "25°C", "protocol": "as §1, §2, §3, §4, §5, §6, §7, §8, §9, §10, §11, §12, §13, §14, §15, §16, §17, §18, §19, §20, §21, §22, §23, §24, §25, §26, §27, §28, §29, §30, §31, §32, §33, §34, §35, §36, §37, §38, §39, §40, §41, §42, §43, §44, §45, §46, §47, §48"}, "[1]": {"settings": "25°C, read-out: KD(ITC) GCP-KRASG12D"}}, "note": "Values joined by “and” are separate entries in the source; they are usually repeats but may differ in a detail not shown here. Equal entries are not always repeated. Where two headings read alike, the source gives them in different places.", "data": [{"smiles": "Cn1cnc(Cn2ccc3ccc(CNCc4[nH]c5ccccc5c4[C@H]4NC(=O)c5ccc(O)cc54)cc32)c1", "note": "[Compound 1]", "values": [{"measurement": "Kd", "setting": "GDP-KRASG12D", "result": 2, "unit": "µM"}, {"measurement": "Kd", "setting": "GCP-NRASwt", "result": 1.3, "unit": "µM"}, {"measurement": "Kd", "setting": "GCP-HRASwt", "result": 0.57, "unit": "µM"}, {"measurement": "selectivity of binding to GCP-KRAS^wt (active KRAS^wt)", "setting": "GCP-KRASwt", "result": "5- to 10 fold and 10 fold"}, {"measurement": "Kd", "setting": "GCP-KRASwt", "result": 7.5, "unit": "µM"}, {"measurement": "Kd", "setting": "GDP-KRASwt", "result": 1.1, "unit": "µM"}, {"measurement": "selectivity window to inactive NRAS^wt", "setting": "GDP-NRASwt", "result": "5- to 10 fold"}, {"measurement": "Kd", "setting": "GDP-NRASwt", "result": 8.3, "unit": "µM"}, {"measurement": "Kd", "setting": "GCP-KRASG12D; [1]", "result": 0.74, "unit": "µM"}, {"measurement": "Kd", "setting": "GCP-KRASG12D; read-out: KD GTP-KRAS^G12D as measured by ITC", "result": 0.75, "unit": "µM"}, {"measurement": "Kd", "setting": "GDP-HRASwt", "result": 2.5, "unit": "µM"}]}, {"smiles": "CN(C)Cc1[nH]c2ccccc2c1[C@H]1NC(=O)c2ccc(O)cc21", "note": "[Compound 18]", "values": [{"measurement": "Kd", "setting": "GDP-KRASG12D", "result": 29, "unit": "µM"}, {"measurement": "Kd", "setting": "GCP-NRASwt", "result": 33, "unit": "µM"}, {"measurement": "Kd", "setting": "GCP-HRASwt", "result": 6.7, "unit": "µM"}, {"measurement": "Kd", "setting": "GCP-KRASwt", "result": 49, "unit": "µM"}, {"measurement": "Kd", "setting": "GDP-KRASwt", "result": 15, "unit": "µM"}, {"measurement": "Kd", "setting": "GDP-NRASwt", "result": 33, "unit": "µM"}, {"measurement": "Kd", "setting": "GCP-KRASG12D; [1]", "result": "22 µM and 20 µM and 20.4 µM"}, {"measurement": "Kd", "setting": "GDP-HRASwt", "result": 54, "unit": "µM"}]}]}
